These results are taken from PubChem BioAssay (NCI).

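Cultured in 96-well plates, cells were exposed to test compound for 48 hours across five concentrations. The concentration for 50% growth inhibition is given as GI50. The concentration for full growth arrest is given as TGI.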 Bounds are passed on as bounds.

Test systems include RXF-631 renal; MDA-N; P388/ADR leukemia; 786-0 renal.
Test in all cases: NCI tumour cell line growth inhibition, 48 h

In the case of `C/C(=C1/N=C(c2cc([N+](=O)[O-])ccc2Cl)N(C2=CC=C(Cl)CC2)C1=O)c1cc2ccccc2oc1=O`, the TGI in the assay with RXF-631 renal is greater than 100 µM. On to `CCCCN(CCCC)c1ccc(N=Nc2ccc(S(=O)(=O)O)cc2)cc1`, for which, in the assay on MDA-N, the TGI is greater than 100 µM. The compound `CC(=O)/C=C/c1c[nH]c(=O)[nH]c1=O` came in with a TGI in the assay with P388/ADR leukemia of 893 µM.

In the assay with MDA-N, `O=C(COC(=O)c1ccccc1)c1ccc(Br)cc1` returned a TGI of 16.4 µM. Regarding `COc1cc2cnc3c(c2cc1OC)Cc1cc2c(cc1-3)OCO2`, in the assay with MDA-N, the GI50 was greater than 100 µM and the TGI is greater than 100 µM. In the assay with 786-0 renal, this compound registered a TGI greater than 0.0519 mM.

As to `COc1cccc(NC(=O)N/C(=C/c2ccc(N(CCC#N)CCC#N)cc2)NC(=O)c2cc([N+](=O)[O-])ccc2Cl)c1`, the TGI in the assay on RXF-631 renal was greater than 100 µM.

For the compound `CNC=O`, the TGI is greater than 10000 µM with MDA-N, greater than 10 mM with 786-0 renal and greater than 10000 µM in the assay with P388/ADR leukemia.
